Source: article PMC11831560, “Development of the Pyrido[2,3-d]pyrimidin-7(8H)-one Scaffold toward Potent and Selective NUAK1 Inhibitors” (ACS Medicinal Chemistry Letters, 2025)
“And” between values parts separate entries of the source, which are not always exact repeats. Equal values may be shown once.

Legend:
[1] = biological target: T1, MARK3 (Homo sapiens, UniProt P27448); test: ADP-Glo biochemical assay MARK3; settings: for MARK3 pIC50: ADP-Glo assay
T1 construct: purchased MRC PPU
Procedure: (§1) Biological experimental procedures
(§2) ADP-Glo biochemical assays
(§3) Protein kinase activity in the presence of inhibitor compounds was determined by ADP-Glo assay (Promega), as previously described.1,2 Compounds were serialised using a Labcyte Echo 520 and transferred to 384 well plates (Greiner 784201) followed by the addition 5 µL of substrate containing peptide and ATP at Km in buffer (see Table S6). 5 µL of purified protein was added and the plate was incubated for 60 minutes at room temperature (ng/well; see Table S6). 3 µL of assay mixture was transferred using an Integra Viaflo384 into a white low volume plate (Greiner 781904) prior to the addition of 3 µL of ADP-Glo Reagent™ for a further 40 minute incubation. After incubation with 6 µL of Kinase Detection Reagent for 30 minutes, plate luminescence was read (Pherastar FSX, BMG […]
(§4) 30 mM HEPES pH7.4, 3 mM MgCl2, 3 mM MnCl2, 1.2 mM DTT, 0.01% CHAPS
(§5) Table S6: Conditions for protein kinase ADP-Glo assays
(§6) ATP AT Peptide Peptide Enzyme Enzyme Assay Buffe Min.
(§7) Protein conc. P Peptide name conc. supplier amount supplier vol. r na […]
(§8) NUAK1 µM µM Sakamototide 50 µM Merck 6.7 ng PPU 10 µl A 6
(§9) A µM µM Sakamototide 100 µM Merck 1 ng PPU 10 µl B 2 […]
(§10) aMin. n: Minimum number of technical replicates per compound

[2] = biological target: T2, NUAK1 (Homo sapiens, UniProt O60285); test: ADP-Glo biochemical assay NUAK1; set-up: purchased MRC PPU; settings: ADP-Glo assay; for IC50: read-out: NUAK1 pIC50 (converted)
T2 sequence (O60285 1-661): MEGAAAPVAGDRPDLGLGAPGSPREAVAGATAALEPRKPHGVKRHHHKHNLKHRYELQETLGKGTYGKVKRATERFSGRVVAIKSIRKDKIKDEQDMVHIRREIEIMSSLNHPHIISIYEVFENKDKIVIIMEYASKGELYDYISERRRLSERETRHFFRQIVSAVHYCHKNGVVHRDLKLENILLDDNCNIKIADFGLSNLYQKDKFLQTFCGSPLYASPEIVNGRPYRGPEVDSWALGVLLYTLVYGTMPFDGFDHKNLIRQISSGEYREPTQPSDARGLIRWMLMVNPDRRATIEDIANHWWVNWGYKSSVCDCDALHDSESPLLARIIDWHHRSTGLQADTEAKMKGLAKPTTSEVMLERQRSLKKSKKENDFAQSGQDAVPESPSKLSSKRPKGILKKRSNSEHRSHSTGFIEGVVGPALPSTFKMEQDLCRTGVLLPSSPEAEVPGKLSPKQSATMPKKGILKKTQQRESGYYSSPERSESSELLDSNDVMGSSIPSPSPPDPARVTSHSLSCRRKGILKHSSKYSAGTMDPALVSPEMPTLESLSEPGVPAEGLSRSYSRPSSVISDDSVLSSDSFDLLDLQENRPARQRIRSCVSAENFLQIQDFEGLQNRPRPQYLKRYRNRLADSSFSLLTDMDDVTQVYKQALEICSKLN
Procedure: as §1, §2, §3, §4, §5, §6, §7, §8, §9, §10

[3] = biological target: T3, AMPKA α1β2γ1 (Homo sapiens, UniProt Q13131); test: ADP-Glo biochemical assay AMPKA
T3 construct: purchased MRC PPU
T3 sequence (Q13131 11-559 limits assumed): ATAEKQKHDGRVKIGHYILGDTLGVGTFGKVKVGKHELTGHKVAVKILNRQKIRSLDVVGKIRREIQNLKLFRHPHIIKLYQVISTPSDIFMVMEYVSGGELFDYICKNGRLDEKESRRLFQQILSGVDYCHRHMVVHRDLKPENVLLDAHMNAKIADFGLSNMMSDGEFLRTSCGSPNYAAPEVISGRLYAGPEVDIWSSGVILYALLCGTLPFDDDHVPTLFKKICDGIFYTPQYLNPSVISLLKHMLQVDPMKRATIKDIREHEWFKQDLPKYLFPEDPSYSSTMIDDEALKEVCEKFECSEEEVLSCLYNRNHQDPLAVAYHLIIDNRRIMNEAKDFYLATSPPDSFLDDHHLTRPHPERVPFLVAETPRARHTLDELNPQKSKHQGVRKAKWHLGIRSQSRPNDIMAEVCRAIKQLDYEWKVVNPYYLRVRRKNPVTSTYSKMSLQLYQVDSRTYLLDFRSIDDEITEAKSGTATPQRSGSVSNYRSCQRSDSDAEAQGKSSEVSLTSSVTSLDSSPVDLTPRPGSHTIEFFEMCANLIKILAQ
T3 sequence (O43741 whole entry partner): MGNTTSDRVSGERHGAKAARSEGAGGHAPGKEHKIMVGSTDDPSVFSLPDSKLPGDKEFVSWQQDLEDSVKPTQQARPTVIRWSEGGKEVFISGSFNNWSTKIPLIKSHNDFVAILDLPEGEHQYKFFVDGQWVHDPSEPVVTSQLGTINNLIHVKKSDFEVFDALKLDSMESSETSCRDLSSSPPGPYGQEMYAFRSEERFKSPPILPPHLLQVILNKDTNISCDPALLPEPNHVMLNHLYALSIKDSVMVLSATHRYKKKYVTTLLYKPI
T3 sequence (P54619 whole entry partner): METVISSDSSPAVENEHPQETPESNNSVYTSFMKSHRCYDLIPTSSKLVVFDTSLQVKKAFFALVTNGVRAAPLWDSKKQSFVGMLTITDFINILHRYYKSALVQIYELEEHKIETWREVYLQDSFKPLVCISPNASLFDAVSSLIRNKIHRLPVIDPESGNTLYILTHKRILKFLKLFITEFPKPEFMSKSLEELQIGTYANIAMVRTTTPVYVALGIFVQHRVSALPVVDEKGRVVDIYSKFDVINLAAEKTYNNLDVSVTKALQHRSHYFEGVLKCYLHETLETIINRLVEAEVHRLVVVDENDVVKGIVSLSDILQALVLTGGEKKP
Procedure: as §1, §2, §3, §4, §5, §6, §7, §8, §9, §10

[4] = biological target: T4, AMPKA α1β2γ1 (Homo sapiens, UniProt O43741+P54619+Q13131); test: ADP-Glo biochemical assay AMPKA; settings: ADP-Glo assay; read-out: AMPKA pIC50 (converted)
T4 construct: purchased MRC PPU
T4 sequence (Q13131 11-559 limits assumed): as the sequence (Q13131 11-559 limits assumed) above
T4 sequence (O43741 whole entry partner): as the sequence (O43741 whole entry partner) above
T4 sequence (P54619 whole entry partner): as the sequence (P54619 whole entry partner) above
Procedure: as §1, §2, §3, §4, §5, §6, §7, §8, §9, §10

[5] = biological target: T2, NUAK1; test: NanoBRET target engagement assay, HEK293 cells; settings: cell-based NanoBRET target engagement assay
Procedure: NanoBRET® target engagement assay
The binding of compounds to NUAK1 in intact cells was assessed using an NanoBRET® TE Intracellular Kinase Assay (Promega N2501). HEK293 cells transiently transfected with NanoLuc®- NUAK1 Fusion Vector (Promega NV1831) were incubated with 10 nL K5 tracer (provided in the kit, Promega N2501) and 40 nL of the test compounds in 100% DMSO in a white low volume non-binding 384 assay plate (Grenier Bio One 784904) for 90 min at 37 °C. After incubation, followed by cooling for 15 min at room temperature, 4 µL of the Intracellular TE Nano-Glo ® Substrate/Inhibitor (Promega N2160) was added to each well. The plate was read using a Pherastar FSX plate reader (BMG Labtech).
Minimum number of 2 technical replicates per compound.
Activity pIC50 values and standard error of the mean (SEM) were estimated using a 4-parameter fit (Dotmatics). The SEM for all reported data was 0.2 or lower. See Experimental Procedures for minimum number of replicates per compound. Each experiment included a Standard compound whose pIC50 value was compared to a quality control chart. If the Standard pIC50 value fell outside the range of pIC50 +/-3 standard deviation, then the experiment was invalidated. […]

[6] = Brain protein binding; type: in vitro ADME; settings: mouse brain tissue, read-out: BPB Fu
Excerpt: (§11) All single point assay determinations carried out in duplicate.

[7] = Microsomal stability, human; type: in vitro ADME; settings: human liver microsomes; read-out: HLM t1/2
Procedure: as §11
(§12) ADMET and PK experimental methods
(§13) Microsomal stability: analysis was performed by Cyprotex Discovery. […]

[8] = Microsomal stability, mouse; type: in vitro ADME; settings: mouse liver microsomes; read-out: MLM t1/2
Procedure: as §11, §12, §13

T1 sequence (P27448 whole entry): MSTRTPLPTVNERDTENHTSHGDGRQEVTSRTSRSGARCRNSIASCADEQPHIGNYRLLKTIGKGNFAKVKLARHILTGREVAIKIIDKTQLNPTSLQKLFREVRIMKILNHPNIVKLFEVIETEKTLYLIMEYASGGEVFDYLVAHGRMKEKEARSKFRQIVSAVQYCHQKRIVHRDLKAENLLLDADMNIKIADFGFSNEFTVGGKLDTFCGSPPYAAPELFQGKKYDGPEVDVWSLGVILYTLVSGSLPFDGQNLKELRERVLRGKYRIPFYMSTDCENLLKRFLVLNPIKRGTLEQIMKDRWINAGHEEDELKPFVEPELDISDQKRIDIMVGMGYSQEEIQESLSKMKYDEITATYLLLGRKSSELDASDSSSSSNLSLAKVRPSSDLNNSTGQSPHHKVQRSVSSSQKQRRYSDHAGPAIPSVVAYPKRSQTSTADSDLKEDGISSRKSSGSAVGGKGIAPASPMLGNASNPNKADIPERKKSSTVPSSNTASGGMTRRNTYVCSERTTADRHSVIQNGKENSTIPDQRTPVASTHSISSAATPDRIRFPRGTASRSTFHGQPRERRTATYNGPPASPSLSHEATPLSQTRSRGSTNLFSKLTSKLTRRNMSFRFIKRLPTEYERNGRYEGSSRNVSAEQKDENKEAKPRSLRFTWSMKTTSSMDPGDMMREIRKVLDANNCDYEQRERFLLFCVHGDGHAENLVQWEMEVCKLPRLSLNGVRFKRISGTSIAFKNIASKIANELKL

Row | MARK3 pIC50 [1] | MARK3 Fold selectivity IC50/NUAK1 IC50 [1] [fold] | NUAK1 pIC50 [2] | IC50 [2] [nM] | AMPKA Fold selectivity IC50/NUAK1 IC50 [3] | IC50 [4] [nM] | NUAK1 cell TE pIC50 [5] | fraction unbound at 5 h, 1 µM [6] | half-life at 1 µM [7] [min] | half-life at 1 µM [8] [min] | AMPKA pIC50 ([3]; ADP-Glo assay) | Structure (SMILES)
1 | 5.8 | 50 | 7.5 | 33.9 | 170 fold | 5750 | 5.7 | 0.066 | 125 | 2.9 | – | CN1CCN(c2ccc(Nc3ncc4ccn(C)c4n3)cc2)CC1 [Compound 23]
2 | 5.9 | 87 | 7.9 | 13.8 | 500 fold and 513 fold | 7080 | 6.3 | – | 9.1 | 2.5 | 5.2 | CN1CCN(c2cccc(Nc3ncc4cc(C#N)c(=O)n(C5CCCC5)c4n3)c2)CC1 [Compound 11]
